Assay [1] deals with T1, hFP prostaglandin receptor (Homo sapiens, UniProt P43088).
T1 construct: expressed in transfected cells; host or cells: COS 7 cells transiently transfected (pCR 3.1 vector); the summary sentence instead says stably transfected CHO-KI cells
As to the kind of experiment: Competition binding assay (Reference Example 1), cited as the method for Example 1.

The subject of assay [2] is Prostanoid F receptor family and the Prostanoid E1 receptor family. As to the kind of experiment: R-SAT functional assay (Reference Example 2), cited as the method for Example 2. As to conditions: 23 Days. In kind it is cell-based. The text has this: Without intending to be limited by theory, there are two principal prostaglandin receptor families that control nail growth: the Prostanoid F receptor family and the Prostanoid E1 receptor family. Potential at these receptors in measured in two types of assays-binding assays and functional assays. The functional assay is described herein and the binding assay is above as Reference Example 1.
There are many functional assays available, for example, growth in Swiss 3T3 cells. Preferred is the R-SAT system. R-SAT is a cell-based assay system where genes are transferred to cultured cells. The functional activity of the gene products, or potential drug targets, are then evaluated through signal transduction pathways that lead to cellular growth. The growth signals are reported using marker gene technologies. Thus, effects of drugs on potential drug targets can be efficiently detected as changes in color or fluorescence. R-SAT enables the efficient screening of large compound libraries for identification of new chemistries at given targets, as well as detailed pharmacological testing of compounds at a wide range of targets, as described in MESSIER, T., DORMAN, C. M.; BRAUNEROSBORNE, H.; EUBANKS, D. & BRANN, M. R. (1995) Pharmacol. and Toxicol. 76 308-311, incorporated herein by reference.
was tested according to the method of Reference Example 2.

T1 sequence (P43088 whole entry): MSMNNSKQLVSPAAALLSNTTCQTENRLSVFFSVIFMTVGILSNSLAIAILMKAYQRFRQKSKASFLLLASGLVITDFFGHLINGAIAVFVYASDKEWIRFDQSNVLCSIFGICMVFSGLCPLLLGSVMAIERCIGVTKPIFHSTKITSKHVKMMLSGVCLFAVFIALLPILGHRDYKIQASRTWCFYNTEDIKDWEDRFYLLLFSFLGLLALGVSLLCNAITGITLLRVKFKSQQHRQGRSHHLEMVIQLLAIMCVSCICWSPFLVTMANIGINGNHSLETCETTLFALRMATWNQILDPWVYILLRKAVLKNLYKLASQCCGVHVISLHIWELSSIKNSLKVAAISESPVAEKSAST

Take `CC(C)OC(=O)CCCCCC[C@@H]1[C@@H](CCC(O)CSc2ccccc2)[C@H](O)C[C@@H]1O` (stereo partly shown) [Example 1]: the “Average Grades” value in assay [1] (23 Days) turned out to be 0.4; in assay [1] (25 Days) it was 0.1; in assay [1] (26 Days), 0.7.

Consider `COC(=O)CCCCCC[C@@H]1[C@@H](CCC(O)CSc2ccccc2Br)[C@H](O)C[C@@H]1O` (stereo partly shown) [Example 2], for which the “Average Grades” value in assay [2] is 0.1.

For the origin of these results see patent publication US20160128926A1, “COMPOSITIONS AND METHODS FOR TREATING NAILS, CLAWS, AND HOOFS” (TOPICAL SOLUTIONS, INC., priority 2013, published 2016).
